In US20070105721A1, “Vinylogous 4-Hpyrones and their use in promoting plant growth” (priority 2003, published 2007):

Experiments:
[1] = system: Verticordia densiflora; assay: Soil-based germination trial; format: in vivo; settings: SW 1/10 dilution; compound 1a 10 ppb; in soil; further: tested at 0.01 ppm
Description: (§1) For the soil-based germination trials, four replicates of 25 seeds were soaked in the test solution (water (control) or compound 1 analogues at 10 ppb) for 24 hours, dried in a laminar flow cabinet and sowed in a germination mix. The soil-sown seeds were incubated in the dark at 20±1° C. and were scored on a weekly basis.

[2] = system: Syncarpha vestita; assay: Soil-based germination trial; format: in vivo; settings: SW 1/10 dilution; compound 1a 10 ppb; in soil; further: tested at 0.01 ppm
Description: as §1

[3] = system: Brunonia australis; assay: Soil-based germination trial; format: in vivo; settings: SW 1/10 dilution; compound 1a 10 ppb; in soil; mean (SEM); further: tested at 0.01 ppm
Description: as §1

[4] = system: Conostylis candicans; assay: Soil-based germination trial; format: in vivo; settings: SW 1/10 dilution; compound 1a 10 ppb; in soil; further: tested at 0.01 ppm
Description: as §1

[5] = system: Rhodocoma arida; assay: Soil-based germination trial; format: in vivo; settings: SW 1/10 dilution; compound 1a 10 ppb; in soil; 1a statistically significant with p < 0.08; further: tested at 0.01 ppm
Description: as §1

[6] = system: Scaevola thesioides; assay: Soil-based germination trial; format: in vivo; settings: SW 1/10 dilution; compound 1a 10 ppb; in soil; further: tested at 0.01 ppm
Description: as §1

[7] = system: Grevillea polybotrya; assay: Soil-based germination trial; format: in vivo; settings: SW 1/10 dilution; compound 1a 10 ppb; in soil; further: tested at 0.01 ppm
Description: as §1

[8] = system: Ozothamnus cordifolium; assay: Soil-based germination trial; format: in vivo; settings: SW 1/10 dilution; compound 1a 10 ppb; in soil; further: tested at 0.01 ppm
Description: as §1

[9] = system: Passerina vulgaris; assay: Soil-based germination trial; format: in vivo; settings: SW 1/10 dilution; compound 1a 10 ppb; in soil; further: tested at 0.01 ppm
Description: as §1

[10] = system: Conostylis aculeata; assay: Germination enhancement of species used in amenity horticulture; format: in vivo; settings: compound 1a at 100 ppb; constant darkness at 18° C.; mean ± standard error; further: tested at 0.1 ppm
Description: (§2) For each species, three replicates of 25 seeds were placed on Petri dishes lined with seed germination paper. The Petri dishes were moistened with de-ionised water (control) or 100 ppb compound 1a. All species were incubated in constant darkness at 18° C. Germination (radicle emergence) was recorded five times a week.

[11] = system: Syncarpha vestita; assay: as above; format: in vivo; settings: compound 1a at 100 ppb; constant darkness at 18° C.
Description: as §2

[12] = system: Stylidium affine; assay: as above; format: in vivo; settings: compound 1a at 100 ppb; constant darkness at 18° C. Further: tested at 0.1 ppm.
Description: as §2

[13] = system: Emmenanthe penduliflora; assay: as above; format: in vivo; settings: compound 1a at 100 ppb; constant darkness at 18° C. Further: tested at 0.1 ppm.
Description: as §2

[14] = system: Rhodocoma arida; assay: as above; format: in vivo; settings: compound 1a at 100 ppb; constant darkness at 18° C.
Description: as §2

[15] = system: Passerina vulgaris; assay: as above; format: in vivo; settings: compound 1a at 100 ppb; constant darkness at 18° C.
Description: as §2

[16] = system: Avena fatua (wild oats); assay: Weed germination enhancement; format: in vivo; settings: compound 1a at 100 ppb; mean ± standard error; further: tested at 0.1 ppm
Description: as §2, with “four” for “three”, “12/12 hr alternating temperatures of 7/18° C., 13/26° C. or 18/33°” for “18°”, “every 2-3 days until germination had ceased.” for “five times a week.”

[17] = system: Brassica tournefortii (wild turnip); assay: Weed germination enhancement; format: in vivo; settings: compound 1a at 100 ppb; further: tested at 0.1 ppm
Description: as §2, with “four” for “three”, “12/12 hr alternating temperatures of 7/18° C., 13/26° C. or 18/33°” for “18°”, “every 2-3 days until germination had ceased.” for “five times a week.”

[18] = system: Acetosa vesicaria (ruby dock); assay: Weed germination enhancement; format: in vivo; settings: compound 1a at 100 ppb; further: tested at 0.1 ppm
Description: as §2, with “four” for “three”, “12/12 hr alternating temperatures of 7/18° C., 13/26° C. or 18/33°” for “18°”, “every 2-3 days until germination had ceased.” for “five times a week.”

[19] = system: Podolepis canescens seeds; assay: Compound 1a as a replacement for light or gibberellic acid; format: in vivo; settings: 1, 10 or 100 ppb compound 1a; similar to gibberellic acid
Description: Three replicates of 50 seeds of Podolepis canescens were placed on Petri dishes containing filter paper moistened with de-ionised water (control), 1, 10 or 100 ppb compound 1a or 1000 ppm gibberellic acid. The Petri dishes were incubated at 12/12 hr alternating temperatures of 7/18° C., 13/26° C. or 18/33° C. and incubated in white light or continuous darkness. All of the treatments were added to the Petri dishes in complete darkness prior to moving to the incubators. Germination was recorded following 7 days incubation.

[20] = system: somatic embryos induced from shoot and coleoptile explants of Baloskion tetraphyllum; assay: Reactivity of compound 1a with somatic tissue; format: cell-based; settings: for Frequency of shoot formation / Number of shoots: after culturing for 20 days, compound 1a at 10 ppb; on Frequency of shoot formation: tested at 0.01 ppm; on Number of shoots: tested at 0.01 ppm
Description: Seeds were cultured on PGR-free 1/2 MS medium for 4 weeks in darkness, then 3 mm coleoptile sections were removed under aseptic conditions and explanted to culture media supplemented with […] 2,4-dichlorophenoxyacetic acid and compound 1a (0, 1.0, 10, 100 ppb, respectively), with incubation in darkness at 22-25° C. Each plate was inoculated with 10 coleoptile sections and every treatment was replicated by 6 plates. […] Shoots of Baloskion tetraphyllum were cultured on 1/2 MS basal medium supplemented with […] in 16 hr light culture (PPFD of 30 μmolm^−2s^−1). After two months, whole shoots were trimmed of upper leaf and basal roots to 4 mm in length, then explanted to culture media with 1 mM 2,4-dichlorophenoxyacetic acid and supplemented with different concentrations of compound 1a (0, 1.0, 10, 100 ppb, respectively) and incubated in darkness at 22-25° C. Each plate was inoculated with 10 trimmed shoots and every treatment replicated with 4 plates. Somatic embryogenesis and plant regeneration was investigated at various intervals.

[21] = system: Echinacea angustifolia; assay: Stimulation of germination in nutriceutically important plants; format: in vivo
Description: as §2, with “Three” for “For each species, three”, “(control), 10” for “(control)”, “Seeds” for “All species”, “every 2-3 days until germination had ceased.” for “five times a week.”

[22] = system: Camissonia califomica; assay: Germination on moist filter paper in petri dishes; format: in vivo; settings: SW 1/10 dilution, compound 1a 10 ppb
[23] = system: Gompholobium tomentosum seeds; assay: Seed vigour enhancement (cumulative germination); format: in vivo; settings: compound 1a at 100 ppb; FIG. 3
Description: For each species, five replicates of 20 seeds were placed on Petri dishes lined with seed germination paper. The Petri dishes were moistened with de-ionised water (control) or 100 ppb compound 1a. All species were incubated in constant darkness at 12/12 hr alternating temperatures of 7/18° C., 13/26° C. or 18/33° C. Germination was scored on radicle emergence and was recorded every 2-3 days until germination had ceased.

SMILES: Cc1c2ccocc-2oc1=O [Compound 1a, 3-Methyl-2H-furo[2,3-c]pyran-2-one]
- Germination, Verticordia densiflora [1]: 11.1 (±1.2) b %
- Germination, Syncarpha vestita [2]: 77.5 (±6.3) b %
- Germination, Brunonia australis [3]: 25.0 (±2.5) b %
- Germination, Conostylis candicans [4]: 36.0 (±6.7) b %
- Germination, Rhodocoma arida [5]: *53.3 (±3.1) b %
- Germination, Scaevola thesioides [6]: 17.0 (±5.5) b %
- Germination, Grevillea polybotrya [7]: 6.0 (±2.0) c %
- Germination, Ozothamnus cordifolium [8]: 24.0 (±4.3) c %
- Germination, Passerina vulgaris [9]: 10.0 (±4.1) b %
- Germination, Conostylis aculeata [10]: 48.2 ± 3.9 b
- Germination, Syncarpha vestita [11]: 77.5 ± 6.3 b
- Germination, Stylidium affine [12]: 83.4 ± 3.7 b
- Germination, Emmenanthe penduliflora [13]: 82.0 ± 4.2 b
- Germination, Rhodocoma arida [14]: 53.3 ± 3.1 b
- Germination, Passerina vulgaris [15]: 10.0 ± 4.1 b
- germination percentage, Avena fatua (wild oats) [16]: 38.0 ± 4.3 b %
- germination percentage, Brassica tournefortii (wild turnip) [17]: 92.0 ± 2.8 b %
- germination percentage, Acetosa vesicaria (ruby dock) [18]: 30.0 ± 7.6 b %
- germination in the dark of light-requiring Podolepis canescens [19]: stimulates germination in the dark
- Frequency of shoot formation ([20]; Coleoptile explants): 37.0
- Number of shoots ([20]; Coleoptile explants): 4.5
- Frequency of shoot formation ([20]; Shoot explants): 58.6
- Number of shoots ([20]; Shoot explants): 7.8
- root formation and plantlet maturation ([20]; once somatic embryos are induced): significantly enhances
- plantlet recovery and regeneration ([20]; somatic embryos transferred to hormone-free medium): significantly improved
- effect on the induction phase of somatic embryogenesis ([20]; with 2,4-dichlorophenoxyacetic acid): no apparent effect
- germination of Echinacea angustifolia ([21]; 10 ppb compound 1a, mean ± standard error): 58.0 ± 5.5 b
- germination of Echinacea angustifolia ([21]; 100 ppb compound 1a): 74.0 ± 4.0 b
- Germination, Camissonia califomica [22]: 85.3 (±4.8) b %
- germination rate (cumulative germination), Gompholobium tomentosum [23]: improved germination rate
